Tested on: rat model of chronic colonic inflammation (colitis induced by TNBS)
Assay: TNBS hapten-induced colitis model of inflammatory bowel disease (Example 1)
Format: in vivo
Conditions: for gross morphologic damage score index: male HSD rats, colitis by 30 mg/kg TNBS intracolonic, colon scored (0-5, Table 1) four days after induction, saline control 3.24±0.66, PYY[3-36] 900 μg/kg s.c. twice daily, Depo-Medrol 600 μg/kg i.m., 5-ASA 200 mg/kg intracolonic; for spleen weight (systemic immune suppression): rat, in vivo
Protocol: Animal preparation: 10-11 weeks old male HSD rats, ranging 250-300 grams, were housed in a 12:12 light:dark cycle, and allowed ad libitum access to a standard rodent diet (Teklad L M 485, Madison, Wis.) and water. The animals were fasted for 24 hours before the experiment. Procedure: A simple and reproducible rat model of chronic colonic inflammation has been previously described by Morris G P, et al., “Hapten-induced model of chronic inflammation and ulceration in the rat colon.” Gastroenterology. 1989; 96:795-803. […] Rats were anesthetized with 3% isofluorane and placed on a regulated heating pad set at 37° C. A gavage needle was inserted rectally into the colon 7 cm. The hapten trinitrobenzenesulfonic acid (TNBS) dissolved in 50% ethanol (v/v) was delivered into the lumen of the colon through the gavage needle at a dose of 30 mg/kg, in a total volume of 0.4-0.6 mL, as described in Mazelin, supra. Control groups received saline solution (NaCl 0.9%) intracolonically. Four days after induction of colitis, the colon was resected from anesthetized rats, which were then euthanized by decapitation. Weights of excised colon and spleen were measured, and the colons photographed for scoring of gross morphologic damage according to Table 1 before division into 3 parts. The segment of colon 1 cm from the cecum was fixed in 10% formalin. Other segments were immediately frozen on dry ice. Inflammation was defined as regions of hyperemia and bowel wall thickening. […] [table] For this assay, 5 treatment groups were set up as follows: • Group A (n=3). intracolonic saline with subcutaneous treatment of saline; • Group B (n=8). subcutaneous treatment of saline prior to induction of colitis by 30 mg/kg TNBS; • Group C (n=10). […] Positive control—intramuscular injection of Depo-Medrol 600 μg/kg 60 min prior to induction of colitis by 30 mg/kg TNBS; • Group E (n=10). Positive control, 5-amino salicylic acid (Sigma) suspension at 200 mg/kg intracolonic administration in 0.5 mL saline, 60 min before induction of colitis and daily thereafter. Results

spleen weight (systemic immune suppression)	Compound	gross morphologic damage score index
not decreased	Nc1ccc(O)c(C(=O)O)c1 [5-ASA, 5-aminosalicylic acid]	1.62±0.62
decreased	CC(=O)OCC(=O)[C@@]1(O)CC[C@H]2[C@@H]3C[C@H](C)C4=CC(=O)C=C[C@]4(C)[C@H]3[C@@H](O)C[C@@]21C [Depo-Medrol]	1.12±0.26

Reference: US20060122106A1, “Prevention and/or treatment of inflammatory bowel disease using pyy or agonists thereof” (Amylin Pharmaceuticals, Inc, priority 2002, published 2006)
